Results on 9 molecules are retold here after article PMC5074515 (PLoS ONE, 2016).

One data set deals with tubulin. Nature of the data set: Tubulin polymerization assay. The format is biochemical, human. The conditions noted are these: for IC50: mean ± standard deviation, at least three times per assay, NA = not active up to 100 μM; for effect on human tubulin: at 100 μM.
Another data set relates to Mtb H37Ra (ATCC 25177). Put plainly: In vitro screen versus Mtb H37Ra (Alamar blue microdilution broth assay, MIC99). The format is cell-based, M. tuberculosis. The settings on record: Mycobacterium tuberculosis. As for the experimental part: The initial screening set and selected other compounds were tested for their inhibitory activity against Mtb H37Ra (ATCC 25177) and MAC NJ211 strains. Screening was performed at 1.28 and 12.8 μg/mL in Middlebrook 7H9 broth supplemented with 0.2% glycerol and ADC enrichment using a colorimetric (Alamar blue) microdilution broth assay by reported methods.[15]

A further data set has as its system MAC NJ211. Nature of the data set: In vitro screen versus MAC NJ211 (Alamar blue microdilution broth assay, MIC99). The format is cell-based. The settings on record: for MIC99: read-out: MAC NJ211 MIC99.
The next data set addresses Mtb FtsZ (Mycobacterium tuberculosis, UniProt P9WN95). Put plainly: biochemical. The format is biochemical.
In data set [1] the test system is Mtb H37Rv. Nature of the data set: TAACF Alamar blue assay against Mtb H37Rv (IC90). The format is cell-based, M. tuberculosis. The settings on record: Mycobacterium tuberculosis.
The nature of data set [2]: Acute toxicity mouse model. The format is in vivo, mice. The conditions noted are these: single dose of 300 mg/kg.
The next data set is described as follows: in vitro. The settings on record: African green monkey.
Data set [3] can be described thus: Rapid PK mouse model (bioavailability). The settings on record: mice, oral gavage, 300 mg/kg.
Data set [4] is described as follows: Cytotoxicity (CC50) in Vero cells, TAACF. The conditions noted are these: African green monkey.
Another data set concerns Vero cells. Nature of the data set: Cytotoxicity (CC50) in Vero cells, TAACF. The conditions noted are these: CC50 in Vero cells to IC90 against Mtb H37Rv.
The test system of data set [5] is Mtb H37Rv. Put plainly: In vitro qHTS assay against Mtb H37Rv (IC90). The format is cell-based, M. tuberculosis. The settings on record: Mycobacterium tuberculosis, H37RV; for IC90: concentration that inhibits bacterial growth by 90%, read-out: Mtb H37Rv IC90.
For data set [6] the following is noted: cited from earlier work.
The subject of data set [7] is M. tuberculosis 41 (Mtb 41) FtsZ reporter strain. The format is cell-based.
Where [8] appears, read: lowest drug concentration that completely inhibited growth, read-out: Mtb H37Ra MIC99.
The mark [9] stands for this setting: mean ± standard deviation, at least three times per assay, NA = not active up to 100 μM, read-out: Mtb FtsZ Polymerization IC50.
[10] abbreviates: lowest drug concentration that completely inhibited growth.
The mark [11] stands for this setting: same MIC99 given in μM, read-out: Mtb H37Ra MIC99 (concentration in μM in parentheses).

SMILES strings stand for the structures. ≈ marks a conversion by molar mass, not a printed value. Where two headings read alike, the source gives them in different places.

Sequence of Mtb FtsZ (P9WN95 whole entry): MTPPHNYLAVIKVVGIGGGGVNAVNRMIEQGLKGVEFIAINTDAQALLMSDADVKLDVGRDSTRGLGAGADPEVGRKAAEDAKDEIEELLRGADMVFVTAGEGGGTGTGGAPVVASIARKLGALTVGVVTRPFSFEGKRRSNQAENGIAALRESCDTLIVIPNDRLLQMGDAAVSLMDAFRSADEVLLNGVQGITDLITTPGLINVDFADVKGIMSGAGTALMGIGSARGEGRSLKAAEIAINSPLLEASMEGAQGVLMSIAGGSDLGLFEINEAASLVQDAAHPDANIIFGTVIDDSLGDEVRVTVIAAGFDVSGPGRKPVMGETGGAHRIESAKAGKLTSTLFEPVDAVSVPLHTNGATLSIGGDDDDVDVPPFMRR

On to `C=CCOc1c(Br)cc(S(=O)(=O)c2cc(Br)c(O)c(Br)c2)cc1Br` [Compound 7, Zantrin Z4], for which, in the data set on tubulin, half-maximal inhibition (IC50) was put at 77 ± 3 µM. The MIC99 with Mtb H37Ra (ATCC 25177) (setting [8]) is 64 mg/L; in the data set on MAC NJ211 it was more than 64 mg/L.
Take `CC[n+]1c(/C=C/N(C)c2ccccc2)n(-c2ccccc2)c2ccc(-c3nc4ccccc4s3)cc21` [Compound 8, Zantrin Z2]: the IC50 at Mtb FtsZ (setting [9]) is 3.5 ± 0.3 µM; in the data set with tubulin it was more than 100 µM. The minimum inhibitory concentration (MIC) against Mtb H37Ra (ATCC 25177) (setting [10]) and in the data set on MAC NJ211 (setting [10]) was 1 mg/L each time. For the same molecule, the IC90 with Mtb H37Rv [1] (read-out: Mtb H37Rv IC90) was 1.56 mg/L; in the data set with Mtb H37Rv [1] (read-out: Mtb H37Rv IC90 (concentration in µM in parentheses)), 3.2 µM. Also, the “ill effects to the mice” value in data set [2] is on record as “no ill effects”. The CC50 in the data set “in vitro” turned out to be 1.7 mg/L; in data set [4], 3.49 µM. Besides, the Bioavailability entry in data set [3] was “no bioavailability and None”. The “Selectivity Index (CC50/IC90)” value with Vero cells was 1.09.
With `C[n+]1cc2c3c(ccc2c2ccc4cc5c(cc4c21)OCO5)OCO3` [Compound 10, Sanguinarine Cl‾ • H2O], the IC50 against Mtb FtsZ was 23 ± 4 µM; in the data set with tubulin it was 30 ± 7 µM. For the same molecule, the MIC99 in the data set with Mtb H37Ra (ATCC 25177) (setting [8]) was 64 mg/L; with Mtb H37Ra (ATCC 25177) (setting [11]), 193 µM; in the data set on MAC NJ211 (setting [10]), more than 64 mg/L.
Consider `CSc1ccc(/C=C2/C(C)=C(CC(=O)NCCN(C)C)c3cc(F)ccc32)cc1` [Compound 18, (Z)-N-(2-(dimethylamino)ethyl)-2-(5-fluoro-2-methyl-1-(4-(methylthio)benzylidene)-1H-inden-3-yl)acetamide], for which the concentration for half-maximal inhibition (IC50) at Mtb FtsZ (setting [9]) worked out at 39.4 ± 4.9 µM. Also, the “effect on human tubulin” value is reported as “no effect” with tubulin and “no inhibition” in the data set with tubulin (listed as SSA). The MIC99 with Mtb H37Ra (ATCC 25177) (setting [8]) was 8 mg/L; with Mtb H37Ra (ATCC 25177) (setting [11]) it was 19.5 µM; with MAC NJ211 (setting [10]), 16 mg/L (≈ 39 µM). Also, in the data set on Mtb H37Rv [5], the IC90 came out at 7.29 ± 0.23 µM. For the same molecule, in data set [6] (over 17 days), the “tolerated dose in mice” value was “up to 300 mg/kg”.
In turn, `CSc1ccc(/C=C2/C(C)=C(CC(=O)NCCN3CCCCC3)c3cc(F)ccc32)cc1` [Compound 24, (Z)-2-(5-Fluoro-2-methyl-1-(4-(methylthio)benzylidene)-1H-inden-3-yl)-N-(2-(piperidin-1-yl)ethyl)acetamide] came in with a melting point of 130 to 133 °C. Further, the IC50 at Mtb FtsZ (setting [9]) came out at 26.5 ± 4.8 µM. Further, the IC50 in the data set with tubulin was more than 100 µM. Besides, the IC90 with Mtb H37Rv [5] came out at 1.41 ± 0.03 µM.
Consider `CSc1ccc(/C=C2\C(C)=C(CC(=O)NCCN(C)C)c3cc(F)ccc32)cc1` [Compound 61, (E)-N-(2-(Dimethylamino)ethyl)-2-(5-fluoro-2-methyl-1-(4-(methylthio)benzylidene)-1H-inden-3-yl)acetamide], for which the IC50 on Mtb FtsZ (setting [9]) was determined as 44.6 ± 6.3 µM. In addition, the MIC99 with Mtb H37Ra (ATCC 25177) (setting [8]) was found to be 16 mg/L; with MAC NJ211 (setting [10]), 16 mg/L (≈ 39 µM). For the same molecule, the IC90 with Mtb H37Rv [5] worked out at 7.7 ± 0.33 µM.
With `COc1cc(/C=C2\C=C(CC(=O)NCCN(C)C)c3cc(F)ccc32)cc(OC)c1OC` [Compound 62, (E)-N-(2-(dimethylamino)ethyl)-2-(5-fluoro-1-(3,4,5-trimethoxybenzylidene)-1H-inden-3-yl)acetamide], the IC50 at Mtb FtsZ (setting [9]) was 43.3 ± 9.8 µM. The MIC99 is 32 mg/L in the data set with Mtb H37Ra (ATCC 25177) (setting [8]), 72.5 µM in the data set with Mtb H37Ra (ATCC 25177) (setting [11]) and more than 64 mg/L in the data set with MAC NJ211 (setting [10]). In the data set with Mtb H37Rv [5] (at 50 μM), the inhibition at 50 µM came to 82%. Also, the IC90 with Mtb H37Rv [5] was more than 100 µM. The “FtsZ ring assembly in Mtb 41” value in [7] is reported as “inhibit FtsZ ring assembly”. Moreover, the “growth of Mtb 41” value in [7] was “significant growth inhibition”.
On to `COc1cc(/C=C2\C=C(CC(=O)NCCN3CCCC3)c3cc(F)ccc32)cc(OC)c1OC` [Compound 63, (E)-2-(5-fluoro-1-(3,4,5-trimethoxybenzylidene)-1H-inden-3-yl)-N-(2-(pyrrolidin-1-yl)ethyl)acetamide], for which the IC50 at Mtb FtsZ (setting [9]) worked out at 37.6 ± 5.7 µM. The MIC99 is 32 mg/L in the data set on Mtb H37Ra (ATCC 25177) (setting [8]), 68.5 µM in the data set with Mtb H37Ra (ATCC 25177) (setting [11]) and more than 64 mg/L in the data set with MAC NJ211 (setting [10]). Besides, the IC90 with Mtb H37Rv [5] was 25.5 ± 0.33 µM. The “FtsZ ring assembly in Mtb 41” value in data set [7] is on record as “inhibit FtsZ ring assembly”. The “growth of Mtb 41” value in data set [7] is “significant growth inhibition”. For the same molecule, the “bacterial cell length of Mtb 41” value in data set [7] (75 μM, brightfield microscopy) is listed as “clear increase in bacterial cell length”.
With `CSc1ccc(/C=C2/C(C)=C(CC(=O)O)c3cc(F)ccc32)cc1` [Sulindac sulfide, reference compound], the “tolerated dose in mice” value in data set [6] (over 20 days) is recorded as “up to 50 mg/kg”.
